Laboratory results reported in ChEMBL document CHEMBL1201862, “PubChem BioAssay data set” (2004).
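Step 1: Grow cells in 96-well plates. Step 2: Expose to compound for 48 hours at 5 concentrations. Step 3: Interpolate endpoints linearly; if unreached, use highest concentration. GI50: concentration for 50% inhibition of growth.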 Activity calls are given as the source filed them. Cut-off read from the data, not from the text of the source: active = GI50 up to about 1.1 µM and inactive = higher.

What was measured:
Assay in all cases: NCI tumour cell line growth inhibition, 48 h
[1] = system: A498
[2] = system: HCC 2998
[3] = system: HCT-116
[4] = system: K562
[5] = system: MDA-MB-435
[6] = system: Malme-3M
[7] = system: NCI-H226
[8] = system: NCI-H23
[9] = system: NCI/ADR-RES
[10] = system: OVCAR-3
[11] = system: OVCAR-4
[12] = system: RPMI-8226
[13] = system: SK-MEL-28
[14] = system: SK-MEL-5
[15] = system: SNB-19
[16] = system: U-251
[17] = system: UACC-62
[18] = system: CCRF-CEM
[19] = system: NCI-H522

SMILES | GI50 [1] | GI50 [2] | GI50 [3] | GI50 [4] | GI50 [5] | GI50 [6] | GI50 [7] | GI50 [8] | GI50 [9] | GI50 [10] | GI50 [11] | GI50 [12] | GI50 [13] | GI50 [14] | GI50 [15] | GI50 [16] | GI50 [17] | GI50 [18] | GI50 [19]
C[C@@]12c3c4ccc(C=O)c3Oc3ccc(C=O)c(c31)Oc1c(C=O)ccc(c12)O4 | 31.5 µM (inactive) | > 100 µM (inactive) | > 100 µM (inactive) | > 100 µM (inactive) | > 100 µM (inactive) | > 100 µM (inactive) | > 100 µM (inactive) | > 100 µM (inactive) | > 100 µM (inactive) | > 100 µM (inactive) | > 100 µM (inactive) | > 100 µM (inactive) | > 100 µM (inactive) | > 100 µM (inactive) | > 100 µM (inactive) | > 100 µM (inactive) | > 100 µM (inactive) |  | 
COc1ccc(/C(=N/OCCCC(=O)O)c2cccs2)cc1 | > 100 µM (inactive) | > 100 µM (inactive) | > 100 µM (inactive) | > 100 µM (inactive) | > 100 µM (inactive) | > 100 µM (inactive) | > 100 µM (inactive) | > 100 µM (inactive) | > 100 µM (inactive) | > 100 µM (inactive) | > 100 µM (inactive) | > 100 µM (inactive) |  | > 100 µM (inactive) | > 100 µM (inactive) | > 100 µM (inactive) | > 100 µM (inactive) | > 100 µM (inactive) | 
COc1ccc2c(c1O)[C@@]13CCCC=C1[C@@H](C2)N(C)CC3 |  | > 100 µM (inactive) | 36.6 µM (inactive) | 21.3 µM (inactive) | 36.6 µM (inactive) | 1.75 µM (inactive) | 31.6 µM (inactive) | 89.1 µM (inactive) | 33 µM (inactive) | 50.7 µM (inactive) | > 100 µM (inactive) | 29.3 µM (inactive) | > 100 µM (inactive) | 69.2 µM (inactive) | > 100 µM (inactive) | > 100 µM (inactive) | > 100 µM (inactive) | 27.5 µM (inactive) | 25.2 µM (inactive)
COc1ccc(C(OCC2OC(n3ccc(NC(=O)c4ccccc4)nc3=O)CC2OP2(=S)SCCS2)(c2ccccc2)c2ccc(OC)cc2)cc1 (stereo unspecified) |  |  | 32.9 µM (inactive) | > 100 µM (inactive) | 30.1 µM (inactive) | 25.4 µM (inactive) | 34.4 µM (inactive) | 43.2 µM (inactive) | > 10 µM (inactive) | 22.6 µM (inactive) | 30.1 µM (inactive) | > 100 µM (inactive) | 30 µM (inactive) | 22.4 µM (inactive) | 29.6 µM (inactive) | 28 µM (inactive) | 16.7 µM (inactive) |  | 22.1 µM (inactive)
C=C1CN(C(=O)c2cc3cc(OC)c(OC)c(OC)c3[nH]2)c2cc([N+](=O)[O-])ccc21 | 64.4 µM (inactive) | > 100 µM (inactive) | > 100 µM (inactive) | > 100 µM (inactive) | > 100 µM (inactive) | > 100 µM (inactive) | > 100 µM (inactive) | 65 µM (inactive) | > 100 µM (inactive) | > 100 µM (inactive) | > 100 µM (inactive) | > 100 µM (inactive) | > 100 µM (inactive) | > 100 µM (inactive) | 45.8 µM (inactive) | 19.1 µM (inactive) | > 100 µM (inactive) |  | 
O=C1/C(=C/c2ccc(OC(=O)c3ccccc3)cc2)CCC/C1=C\c1ccc(OC(=O)c2ccccc2)cc1 |  | > 100 µM (inactive) | > 100 µM (inactive) |  | > 100 µM (inactive) |  |  | > 100 µM (inactive) | > 100 µM (inactive) | > 100 µM (inactive) | > 100 µM (inactive) | > 100 µM (inactive) | > 100 µM (inactive) | > 100 µM (inactive) | > 100 µM (inactive) | > 100 µM (inactive) | > 100 µM (inactive) | > 100 µM (inactive) | > 100 µM (inactive)
O=C1C(Cl)C(c2cccc(Br)c2)N1c1c(O)c(Cl)cc(Br)c1Cl (stereo unspecified) |  | 11.1 µM (inactive) | 14.5 µM (inactive) | 15.9 µM (inactive) | 15 µM (inactive) | 19.1 µM (inactive) | 18.2 µM (inactive) | 16.6 µM (inactive) | 23.8 µM (inactive) | 16.1 µM (inactive) | 12.3 µM (inactive) | 14.4 µM (inactive) |  | 14.2 µM (inactive) | 1.38 µM (inactive) | 12.7 µM (inactive) | 14.5 µM (inactive) | 14.6 µM (inactive) | 14.1 µM (inactive)
CC(C)(C)c1ccc(O)c(C(O)c2ccccn2)c1 (stereo unspecified) |  | 34.4 µM (inactive) | 61.4 µM (inactive) | 42.9 µM (inactive) | > 100 µM (inactive) | 37.6 µM (inactive) | 85.1 µM (inactive) | 56.1 µM (inactive) | 48 µM (inactive) | > 100 µM (inactive) |  | 58.5 µM (inactive) | > 100 µM (inactive) |  | > 100 µM (inactive) | 46.1 µM (inactive) | 2.24 µM (inactive) | 38.2 µM (inactive) | 68.7 µM (inactive)
COc1cc(Cc2nccc3cc(OC)c(OC)cc23)c(/N=N/N(C)C)cc1OC |  | 14.6 µM (inactive) | 5.08 µM (inactive) | 4.28 µM (inactive) | 18.5 µM (inactive) | 22.3 µM (inactive) | 20.4 µM (inactive) | 19.3 µM (inactive) | 23.1 µM (inactive) | 15.5 µM (inactive) | 20.5 µM (inactive) | 4.73 µM (inactive) | 11.2 µM (inactive) | 12.1 µM (inactive) | 30.6 µM (inactive) | 19.1 µM (inactive) | 13.2 µM (inactive) | 3.18 µM (inactive) | 
Cc1cc(S(=O)(=O)Nc2nc(N)nc(N(C)C)n2)c(S)cc1Cl | > 10 µM (inactive) | > 10 µM (inactive) | > 10 µM (inactive) | > 10 µM (inactive) |  | > 10 µM (inactive) | > 10 µM (inactive) | > 10 µM (inactive) | > 10 µM (inactive) | > 10 µM (inactive) | > 10 µM (inactive) | > 10 µM (inactive) | > 10 µM (inactive) | > 10 µM (inactive) | > 10 µM (inactive) | > 10 µM (inactive) |  | > 10 µM (inactive) | > 10 µM (inactive)
CC(NC(=O)c1c(O)[nH]c(=S)[nH]c1=O)c1ccc([N+](=O)[O-])cc1 (stereo unspecified) |  | 35.8 µM (inactive) | 61 µM (inactive) | 43.7 µM (inactive) | > 100 µM (inactive) |  | 70.1 µM (inactive) | 88.1 µM (inactive) |  | 36.1 µM (inactive) | 49 µM (inactive) | > 100 µM (inactive) | > 100 µM (inactive) | > 100 µM (inactive) | 57.5 µM (inactive) | 32.5 µM (inactive) | 77.3 µM (inactive) | 40.8 µM (inactive) | 
CC1(C)CC(=O)C2=C(C1)NC1=C(C(=O)CC(C)(C)C1)C2c1ccc([N+](=O)[O-])cc1 | > 100 µM (inactive) | > 100 µM (inactive) | > 100 µM (inactive) | > 100 µM (inactive) | > 100 µM (inactive) |  | > 100 µM (inactive) | > 100 µM (inactive) |  | > 100 µM (inactive) | > 100 µM (inactive) | > 100 µM (inactive) | > 100 µM (inactive) | > 100 µM (inactive) | > 100 µM (inactive) | > 100 µM (inactive) | > 100 µM (inactive) |  | > 100 µM (inactive)
CCOc1cc(NC(C)=O)ccc1C(=O)NN1C(=O)/C(=C/c2ccc(Cl)cc2)N=C1c1ccccc1 | 24.9 µM (inactive) |  | 46.1 µM (inactive) | 35.2 µM (inactive) | 35.6 µM (inactive) |  | 42.8 µM (inactive) | 41.6 µM (inactive) | 42 µM (inactive) | 33 µM (inactive) | 22.3 µM (inactive) | 25.9 µM (inactive) | > 100 µM (inactive) | 24.2 µM (inactive) | > 100 µM (inactive) | 55.8 µM (inactive) |  | 25 µM (inactive) | 
Cc1cc(O)no1 [HYMEXAZOL] |  | > 100 µM (inactive) | > 100 µM (inactive) | > 100 µM (inactive) | > 100 µM (inactive) |  | > 100 µM (inactive) | > 100 µM (inactive) | > 100 µM (inactive) | > 100 µM (inactive) | > 100 µM (inactive) | > 100 µM (inactive) | > 100 µM (inactive) |  | > 100 µM (inactive) | > 100 µM (inactive) | > 100 µM (inactive) |  | > 100 µM (inactive)
Cc1sc(N/N=C2\C(=O)Nc3ccccc32)nc1-c1ccccc1 | 15.1 µM (inactive) | 22.2 µM (inactive) | 12.4 µM (inactive) |  | 19.6 µM (inactive) |  | 33.3 µM (inactive) | 16.6 µM (inactive) | 17 µM (inactive) | 12.6 µM (inactive) | 13.9 µM (inactive) |  | 17.3 µM (inactive) | 12.6 µM (inactive) | 16.6 µM (inactive) | 11 µM (inactive) | 13.7 µM (inactive) |  | 
COc1c(Br)cc(/C=C(\C#N)c2ccccn2)cc1Br | < 0.01 µM (active) | > 100 µM (inactive) | 30.3 µM (inactive) | > 100 µM (inactive) |  | 44.7 µM (inactive) | 48.4 µM (inactive) | 41.7 µM (inactive) | 39.4 µM (inactive) | > 100 µM (inactive) |  | > 100 µM (inactive) | > 100 µM (inactive) | > 100 µM (inactive) | > 100 µM (inactive) | 13.3 µM (inactive) | 10.8 µM (inactive) | > 100 µM (inactive) | > 100 µM (inactive)
CC(C)(C)c1ccc2c(c1)C(=O)c1ccccc1C2=O | 41.3 µM (inactive) |  | 76 µM (inactive) | 58.1 µM (inactive) | 35.9 µM (inactive) | > 100 µM (inactive) | 35.5 µM (inactive) | 61.9 µM (inactive) | 32.7 µM (inactive) | > 100 µM (inactive) | 33.6 µM (inactive) | 31.3 µM (inactive) | 98.2 µM (inactive) | 18.1 µM (inactive) | > 100 µM (inactive) | 50 µM (inactive) | 42 µM (inactive) | 57.1 µM (inactive) | 
